Experimental data: paper PMC5278714, “Safety and Pharmacokinetics of CD101 IV, a Novel Echinocandin, in Healthy Adults” (Antimicrobial Agents and Chemotherapy, 2017)
Like-named read-outs stand apart in the source and are kept apart here. Numbered stars: 1 amine (or outer) side, 2 acyl side, 3 side chain; on linkers, the order of the positions; unused ones are H or OH. Bridge positions count the residues as written; N and C are the ends. Square brackets hold non-standard residues; d marks the D form. Peptide text beside a SMILES is read from it. * marks the point of attachment. Orn(4R-OH,5R-OCH2CH2NMe3+) = C[N+](C)(C)CCO[C@@H](N[*:3])[C@H](O)C[C@H](N[*:1])C(=O)[*:2]; pTerphenylCO(4''-OnC5H11) = CCCCCOc1ccc(-c2ccc(-c3ccc(C(=O)*)cc3)cc2)cc1; hTyr(3S-OH,4S-OH) = N[C@H](C(=O)O)[C@H](O)[C@@H](O)c1ccc(O)cc1; Pro(3S-OH,4S-Me) = C[C@H]1CN[C@H](C(=O)O)[C@H]1O; Hyp = O=C(O)[C@@H]1C[C@@H](O)CN1

Tests used:
Format in all cases: in vivo, humans
healthy adults [1] = test: Single-ascending-dose phase 1 study: safety and tolerability
Method: (§1) The single-ascending-dose and multiple-ascending-dose studies were phase 1, randomized, double-blind, dose-escalation, placebo-controlled, single-center safety trials of CD101 IV in healthy adults (ClinicalTrials.gov identifiers: NCT02516904 for the single-ascending-dose study; NCT02551549 for the multiple-ascending-dose study). In the single-ascending-dose study, 4 cohorts (corresponding to doses of 50, 100, 200, and 400 mg) of 8 subjects (6 active and 2 placebo) received CD101 IV or placebo infused over 60 (±5) min. In the multiple-ascending-dose study, 3 cohorts (cohort 1, 100 mg ×2 doses; cohort 2, 200 mg ×2 doses; cohort 3, 400 mg ×3 doses) of 8 subjects (6 active and 2 placebo) received CD101 IV or placebo (normal saline solution) infused over 60 (±5) min, with doses separated by 7 days.
(§2) All subjects were monitored for AEs throughout the study until 21 days after the last dose of study drug. Electrocardiograms, hematology and serum chemistry evaluations, and UA were performed at screening, on day −1, and at various time points during and for 14 days after the dosing period. Subjects remained in the clinical research unit for observation and safety assessments from day −1 until 7 days after the last dose of study drug. Three additional safety assessments were performed at weekly follow-up visits following the last dose of study drug. The long follow-up period ensured that any delayed safety events were captured, since CD101 has a very long t1/2 and plasma levels are expected to persist for several weeks. Safety was assessed ≥5 days after dosing by study physicians to determine whether it was safe to proceed to the next dose.
(§3) Safety was assessed in the safety analysis population. Safety was evaluated by presenting summaries of AEs, ECGs, clinical laboratory evaluations (hematology evaluation, chemistry panel, and UA), and vital signs. Adverse events were coded using the Medical Dictionary for Regulatory Activities Version 18.0. A TEAE was an AE that occurred during or after study drug administration and up through 21 (±1) days after study drug administration. The incidence of TEAEs was summarized by system organ class and preferred term, by relationship to study drug, and by severity. In addition, the incidence of serious TEAEs and the incidence of TEAEs leading to discontinuation of study drug were summarized by system organ class and preferred term. Descriptive statistics for clinical laboratory test results and vital signs, and for changes from baseline, were summarized by time point. Incidences of potentially clinically significant clinical laboratory results and vital signs were also summarized by time point. The numbers and percentages of abnormal ECGs were summarized by time point.

healthy adults [2] = test: Multiple-ascending-dose phase 1 study: safety and tolerability
Method: as §1, §2, §3

[3] = Single-ascending-dose phase 1 study: plasma and urine pharmacokinetics; conditions: for Vd / clearance / half-life / Cmax: plasma, arithmetic mean; for Vd: iv; for Cmax: LC-MS/MS
Method: as §1
(§4) Extensive PK sampling from plasma and urine was performed for all subjects following study drug administration and over the 3 weeks after the last dose of study drug. Plasma and urine samples from subjects who received CD101 IV were analyzed by a bioanalytical laboratory for CD101 concentration using a validated liquid chromatography-tandem mass spectrometry method with a lower limit of quantitation of 10 ng/ml.
(§5) Pharmacokinetics were assessed in the PK analysis population and included Cmax, AUC, Cl, elimination rate constant (λz), and terminal t1/2. Plasma concentration-time profiles were constructed for each subject and dosing cohort. For each plasma concentration-time curve, PK parameters were determined directly from inspection of the data or calculated using noncompartmental methods with validated PK software (Phoenix WinNonlin, Version 6.3). Urine concentration data were used to determine renal excretion and drug recovery rates. The number of subjects was selected to allow sufficient evaluation of safety, tolerability, and PK and was consistent with phase 1 standards of practice ([44]).

[4] = Multiple-ascending-dose phase 1 study: plasma and urine pharmacokinetics; conditions: for Vd / clearance / half-life / level at 144 h: plasma; for Vd / clearance / half-life / level at 144 h / dose excreted: iv; for level at 144 h: read-out: trough concentration on day 7 (144 h postdose); for dose excreted: urine
Method: as §1, §4, §5

[5] = human, single 50 mg IV infusion over 1 h
[6] = human, single 100 mg IV infusion over 1 h
[7] = human, single 200 mg IV infusion over 1 h
[8] = human, single 400 mg IV infusion over 1 h
[9] = human, 100 mg, 100 mg IV once weekly x2, day 1, sampling interval 144 h, arithmetic mean
[10] = human, 100 mg, 100 mg IV once weekly x2, day 8, sampling interval 480 h, arithmetic mean
[11] = human, 200 mg, 200 mg IV once weekly x2, day 1, sampling interval 144 h, arithmetic mean
[12] = human, 200 mg, 200 mg IV once weekly x2, day 8, sampling interval 480 h, arithmetic mean
[13] = human, 400 mg, 400 mg IV once weekly x3, day 1, sampling interval 144 h, arithmetic mean
[14] = human, 400 mg, 400 mg IV once weekly x3, day 15, sampling interval 480 h, arithmetic mean
[15] = single and multiple doses, all dose levels

CCCCCOc1ccc(-c2ccc(-c3ccc(C(=O)N[C@H]4C[C@@H](O)[C@@H](OCC[N+](C)(C)C)NC(=O)[C@@H]5[C@@H](O)[C@@H](C)CN5C(=O)[C@H]([C@@H](C)O)NC(=O)[C@H]([C@H](O)[C@@H](O)c5ccc(O)cc5)NC(=O)[C@@H]5C[C@@H](O)CN5C(=O)[C@H]([C@@H](C)O)NC4=O)cc3)cc2)cc1 [CD101] ({pTerphenylCO(4''-OnC5H11)}-[Orn(4R-OH,5R-OCH2CH2NMe3+)]T[Hyp][hTyr(3S-OH,4S-OH)]T[Pro(3S-OH,4S-Me)]; lactam 1-C)
SAEs, severe AEs, withdrawals due to an AE, deaths (healthy adults [1]; both studies, all dose levels): no serious adverse events (SAEs), severe adverse events (AEs), withdrawals due to an AE, or deaths | laboratory abnormalities, vital signs, ECG (healthy adults [1]; both studies, all dose levels): no clinically meaningful trends in postbaseline laboratory abnormalities | overall safety and tolerability (healthy adults [1]; both studies, single dose up to 400 mg, multiple doses up to 400 mg once weekly for 3 weeks): safe and well tolerated at all dose levels tested | subjects with gastrointestinal disorders (system organ class) (healthy adults [1]; cohort 1 (single 50 mg)): 2 [33%] subjects [%] | subjects with musculoskeletal and connective tissue disorders (healthy adults [1]; cohort 1 (single 50 mg)): 2 [33%] subjects [%] | subjects with gastrointestinal disorders (system organ class) (healthy adults [1]; cohort 3 (single 200 mg)): 2 [33%] subjects [%] | subjects with general disorders and administration site conditions (healthy adults [1]; cohort 3 (single 200 mg)): 2 [33%] subjects [%] | subjects with musculoskeletal and connective tissue disorders (healthy adults [1]; cohort 3 (single 200 mg)): 2 subjects | subjects with moderate TEAEs (healthy adults [1]; cohort 3 (single 200 mg), ear pain): 1 subject | subjects with musculoskeletal and connective tissue disorders (healthy adults [1]; cohort 4 (single 400 mg)): 1 subject | subjects with moderate TEAEs (healthy adults [1]; cohort 4 (single 400 mg), headache): 1 subject | subjects with mild, transient infusion reactions (flushing, feeling hot, nausea, chest tightness) (healthy adults [2]; all CD101 cohorts, primarily cohort 3, most common with third dose): Four | subjects with TEAEs related to study drug (healthy adults [2]; cohort 1 (100 mg x2 weeks)): 1 subject | subjects with TEAEs related to study drug (healthy adults [2]; cohort 2 (200 mg x2 weeks)): 1 subject | subjects with moderate TEAEs (healthy adults [2]; cohort 2 (200 mg x2 weeks), arthropod bite and pruritus): 1 subject | subjects with TEAEs related to study drug (healthy adults [2]; cohort 3 (400 mg x3 weeks)): 4 subjects | subjects with gastrointestinal disorders (system organ class) (healthy adults [2]; cohort 3 (400 mg x3 weeks)): 4 [67%] subjects [%] | subjects with vascular disorders (system organ class) (healthy adults [2]; cohort 3 (400 mg x3 weeks)): 3 [50%] subjects [%] | subjects with moderate TEAEs (healthy adults [2]; cohort 3 (400 mg x3 weeks), constipation and myalgia): 2 subjects | Vd ([3]; human, 50 mg, single 50 mg IV infusion over 1 h, read-out: Vss (volume of distribution at steady state)): 36 L | Vd ([3]; human, 50 mg, single 50 mg IV infusion over 1 h, read-out: Vz (apparent volume of distribution during terminal phase)): 43.2 L | Vd ([3]; human, 100 mg, single 100 mg IV infusion over 1 h, read-out: Vss (volume of distribution at steady state)): 42.9 L | Vd ([3]; human, 100 mg, single 100 mg IV infusion over 1 h, read-out: Vz (apparent volume of distribution during terminal phase)): 50.6 L | Vd ([3]; human, 200 mg, single 200 mg IV infusion over 1 h, read-out: Vss (volume of distribution at steady state)): 34.4 L | Vd ([3]; human, 200 mg, single 200 mg IV infusion over 1 h, read-out: Vz (apparent volume of distribution during terminal phase)): 39.7 L | Vd ([3]; human, 400 mg, single 400 mg IV infusion over 1 h, read-out: Vss (volume of distribution at steady state)): 35.9 L | Vd ([3]; human, 400 mg, single 400 mg IV infusion over 1 h, read-out: Vz (apparent volume of distribution during terminal phase)): 41.6 L | clearance [3, 5]: 3.75 mL/min | half-life [3, 5]: 133 h | Cmax ([3]; human, single 100 mg IV infusion over 1 h, read-out: Cmax): 4860 ng/mL | clearance [3, 6]: 4 mL/min | half-life [3, 6]: 146 h | clearance [3, 7]: 3.65 mL/min | half-life [3, 7]: 125 h | clearance [3, 8]: 3.77 mL/min | half-life [3, 8]: 129 h | Cmax ([3]; single 400 mg IV infusion over 1 h): 22700 ng/mL | mean half-life (t1/2) through the first week (up to day 7) of plasma sampling ([3]; single 50 to 400 mg IV doses): > 80 h | Vss ([4]; 100 mg IV once weekly x2, day 8, arithmetic mean): 29.3 L | cumulative amount excreted in urine ([4]; cohort 1 (100 mg x2), day 1): 52.0 µg | mean renal clearance ([4]; cohort 1 (100 mg x2), day 1): 0.1877 mL/h | cumulative amount excreted in urine ([4]; cohort 1 (100 mg x2), day 8): 151.4 µg | cumulative amount excreted in urine ([4]; cohort 2 (200 mg x2), day 1): 145.0 µg | cumulative amount excreted in urine ([4]; cohort 2 (200 mg x2), day 8): 400.7 µg | cumulative amount excreted in urine ([4]; cohort 3 (400 mg x3), day 1): 330.6 µg | cumulative amount excreted in urine ([4]; cohort 3 (400 mg x3), day 15): 987.5 µg | mean renal clearance ([4]; cohort 3 (400 mg x3), day 15): 0.5965 mL/h | cumulative amount excreted in urine, times higher than on day 1 ([4]; days 8 and 15 vs day 1): approximately 3 times | t1/2 ([4]; following the first dose): approximately 80 h | Vd ([4]; human, 100 mg, 100 mg IV once weekly x2, day 1, arithmetic mean, read-out: Vss): 28.8 L | Vd ([4]; human, 100 mg, 100 mg IV once weekly x2, day 1, arithmetic mean, read-out: Vz): 29.5 L | clearance [4, 9]: 4.3 mL/min | half-life [4, 9]: 79.1 h | Vd ([4]; human, 100 mg, 100 mg IV once weekly x2, day 8, arithmetic mean, read-out: Vz): 33.8 L | clearance [4, 10]: 2.48 mL/min | half-life [4, 10]: 158 h | Vd ([4]; human, 200 mg, 200 mg IV once weekly x2, day 1, arithmetic mean, read-out: Vss): 31.7 L | Vd ([4]; human, 200 mg, 200 mg IV once weekly x2, day 1, arithmetic mean, read-out: Vz): 32.8 L | clearance [4, 11]: 4.65 mL/min | half-life [4, 11]: 81.3 h | Vd ([4]; human, 200 mg, 200 mg IV once weekly x2, day 8, arithmetic mean, read-out: Vss): 28.5 L | Vd ([4]; human, 200 mg, 200 mg IV once weekly x2, day 8, arithmetic mean, read-out: Vz): 30.9 L | clearance [4, 12]: 2.58 mL/min | half-life [4, 12]: 140 h | Vd ([4]; human, 400 mg, 400 mg IV once weekly x3, day 1, arithmetic mean, read-out: Vss): 29.6 L | Vd ([4]; human, 400 mg, 400 mg IV once weekly x3, day 1, arithmetic mean, read-out: Vz): 31.2 L | clearance [4, 13]: 4.47 mL/min | half-life [4, 13]: 81 h | Vd ([4]; human, 400 mg, 400 mg IV once weekly x3, day 15, arithmetic mean, read-out: Vss): 25.4 L | Vd ([4]; human, 400 mg, 400 mg IV once weekly x3, day 15, arithmetic mean, read-out: Vz): 27.9 L | clearance [4, 14]: 2.1 mL/min | half-life [4, 14]: 152 h | level at 144 h ([4]; human, 400 mg, following the first dose): ~4000 ng/mL | level at 144 h ([4]; human, 400 mg, following the third (last) dose): ~7000 ng/mL | half-life ([4]; human, following the second or third dose): ~150 h | dose excreted ([4]; human, all dose levels, both studies, read-out: fraction of dose excreted): < 1% | dose excreted ([4]; human, LC-MS/MS, read-out: amount of CD101 excreted in urine): ≤ 0.26% | AUC(0-t) ([4]; human, 200 mg IV once weekly x2, day 1, plasma, arithmetic mean, read-out: AUC0–168): 570 µg·h/mL | Cmax ([4]; human, 400 mg IV once weekly x3, day 1, plasma, arithmetic mean): 22700 ng/mL | apparent clearance [4, 15]: < 0.28 L/h | half-life (t1/2) [4, 15]: > 80 h
